Measurements published in ChEMBL document CHEMBL3885861, “Open TG-GATES”.

Species on record: Rattus norvegicus
Assay: Open TG-GATES - Regimen: Single
Format: toxicity, organism-based, Sprague-Dawley
Set-up: regimen Single, gender Male, age 6 weeks
Details: in vivo, po, 300 mg/kg, route gavage, dose level High; for APTT / Bas / Eos / Fbg / Hb / Ht / Lym / MCH / MCV / Mono / Neu / PT / Plat / RBC / Ret / WBC: tissue Blood; for KIDNEY_L / KIDNEY_R / KIDNEY_TOTAL: tissue Kidney; for LIVER: tissue Liver; for ALP / ALT / AST / BUN / CRE / Ca / Cl / DBIL / GLC / IP / K / LDH / Na / PL / RALB / TBIL / TG / TP / gamma-GTP: tissue Plasma

NC(=O)N1c2ccccc2C=Cc2ccccc21 [CARBAMAZEPINE]
TERMINAL_BW (3 h): 216.2 g
APTT (3 h): 20.3 s
Bas (3 h): 0%
Eos (3 h): 1%
Fbg (3 h): 202 mg/dL
Hb (3 h): 13 g/dL
Ht (3 h): 38.4%
Lym (3 h): 80%
MCH (3 h): 21.6 pg
MCV (3 h): 63.7 fL
Mono (3 h): 2.2%
Neu (3 h): 15.8%
PT (3 h): 12.5 s
Plat (3 h): 116.4 x10_4/uL
RBC (3 h): 602.6 x10_4/ul
Ret (3 h): 7%
WBC (3 h): 87.3 x10_2/uL
KIDNEY_L (3 h): 1 g
KIDNEY_R (3 h): 1 g
KIDNEY_TOTAL (3 h): 2 g
LIVER (3 h): 9.7 g
ALP (3 h): 789.4 IU/L
ALT (3 h): 34.4 IU/L
AST (3 h): 65 IU/L
BUN (3 h): 10.2 mg/dL
CRE (3 h): 0.4 mg/dL
Ca (3 h): 10.3 mg/dL
Cl (3 h): 101.8 meq/L
DBIL (3 h): 0.082 mg/dL
GLC (3 h): 194.8 mg/dL
IP (3 h): 10 mg/dL
K (3 h): 3.8 meq/L
LDH (3 h): 199.6 IU/L
Na (3 h): 140.2 meq/L
PL (3 h): 150.8 mg/dL
RALB (3 h): 3.4 g/dL
TBIL (3 h): 0.1 mg/dL
TG (3 h): 63 mg/dL
TP (3 h): 5.4 g/dL
gamma-GTP (3 h): 1 IU/L
TERMINAL_BW (6 h): 212.3 g
APTT (6 h): 20 s
Bas (6 h): 0%
Eos (6 h): 1%
Fbg (6 h): 205.6 mg/dL
Hb (6 h): 13.2 g/dL
Ht (6 h): 38.6%
Lym (6 h): 80.6%
MCH (6 h): 21.2 pg
MCV (6 h): 61.9 fL
Mono (6 h): 3%
Neu (6 h): 14%
PT (6 h): 12.8 s
Plat (6 h): 123.1 x10_4/uL
RBC (6 h): 623 x10_4/ul
Ret (6 h): 6.2%
WBC (6 h): 86.4 x10_2/uL
KIDNEY_L (6 h): 1 g
KIDNEY_R (6 h): 1 g
KIDNEY_TOTAL (6 h): 2 g
LIVER (6 h): 9.2 g
ALP (6 h): 891 IU/L
ALT (6 h): 35.4 IU/L
AST (6 h): 68 IU/L
BUN (6 h): 8.6 mg/dL
CRE (6 h): 0.4 mg/dL
Ca (6 h): 10.4 mg/dL
Cl (6 h): 102.8 meq/L
DBIL (6 h): 0.074 mg/dL
GLC (6 h): 188.2 mg/dL
IP (6 h): 9.9 mg/dL
K (6 h): 3.7 meq/L
LDH (6 h): 203.4 IU/L
Na (6 h): 140.8 meq/L
PL (6 h): 146 mg/dL
RALB (6 h): 3.4 g/dL
TBIL (6 h): 0.1 mg/dL
TG (6 h): 41.8 mg/dL
TP (6 h): 5.6 g/dL
gamma-GTP (6 h): 0.6 IU/L
TERMINAL_BW (9 h): 212.2 g
APTT (9 h): 20 s
Bas (9 h): 0%
Eos (9 h): 1%
Fbg (9 h): 221.6 mg/dL
Hb (9 h): 13.2 g/dL
Ht (9 h): 38.3%
Lym (9 h): 80.6%
MCH (9 h): 20.7 pg
MCV (9 h): 60.2 fL
Mono (9 h): 2.2%
Neu (9 h): 15.2%
PT (9 h): 13.3 s
Plat (9 h): 123.1 x10_4/uL
RBC (9 h): 637 x10_4/ul
Ret (9 h): 5.7%
WBC (9 h): 77.3 x10_2/uL
KIDNEY_L (9 h): 1 g
KIDNEY_R (9 h): 1 g
KIDNEY_TOTAL (9 h): 1.9 g
LIVER (9 h): 8.5 g
ALP (9 h): 816 IU/L
ALT (9 h): 26.6 IU/L
AST (9 h): 60.4 IU/L
BUN (9 h): 9.4 mg/dL
CRE (9 h): 0.3 mg/dL
Ca (9 h): 10.3 mg/dL
Cl (9 h): 101 meq/L
DBIL (9 h): 0.068 mg/dL
GLC (9 h): 195.8 mg/dL
IP (9 h): 9.9 mg/dL
K (9 h): 3.6 meq/L
LDH (9 h): 200.6 IU/L
Na (9 h): 140.6 meq/L
PL (9 h): 139 mg/dL
RALB (9 h): 3.4 g/dL
TBIL (9 h): 0.1 mg/dL
TG (9 h): 47.2 mg/dL
TP (9 h): 5.6 g/dL
gamma-GTP (9 h): 0.6 IU/L
TERMINAL_BW (24 h): 214.8 g
APTT (24 h): 20.8 s
Bas (24 h): 0%
Eos (24 h): 0.8%
Fbg (24 h): 200.6 mg/dL
Hb (24 h): 13.7 g/dL
Ht (24 h): 40.4%
Lym (24 h): 86%
MCH (24 h): 21.7 pg
MCV (24 h): 63.9 fL
Mono (24 h): 2%
Neu (24 h): 10.6%
PT (24 h): 13 s
Plat (24 h): 127.9 x10_4/uL
RBC (24 h): 632.8 x10_4/ul
Ret (24 h): 6%
WBC (24 h): 91 x10_2/uL
KIDNEY_L (24 h): 1 g
KIDNEY_R (24 h): 1 g
KIDNEY_TOTAL (24 h): 2 g
LIVER (24 h): 9.7 g
ALP (24 h): 927.8 IU/L
ALT (24 h): 34.6 IU/L
AST (24 h): 65 IU/L
BUN (24 h): 14.8 mg/dL
CRE (24 h): 0.4 mg/dL
Ca (24 h): 10.4 mg/dL
Cl (24 h): 103.2 meq/L
DBIL (24 h): 0.1 mg/dL
GLC (24 h): 203.2 mg/dL
IP (24 h): 7.9 mg/dL
K (24 h): 3.6 meq/L
LDH (24 h): 212.2 IU/L
Na (24 h): 141 meq/L
PL (24 h): 121.4 mg/dL
RALB (24 h): 3.4 g/dL
TBIL (24 h): 0.2 mg/dL
TG (24 h): 88 mg/dL
TP (24 h): 5.6 g/dL
gamma-GTP (24 h): 0.8 IU/L
